The structures appear in SMILES notation. Counter-ions that a name gives are not always drawn.

Assay [1] has as its system HUVEC (normal human umbilical vein endothelial cells). As to the kind of experiment: VEGF-induced HUVEC proliferation: cell proliferation inhibitory action test.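 Further: each well holds 100 µL cell suspension before compound addition.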 In kind it is cell-based. To be noted: 72 h, 5 μL of 20 μg/mL test compound solution per well, WST-8 absorbance at 450 nm three days after VEGF addition, read-out: Cell proliferation inhibition rate (%). As for the experimental part:
A cell proliferation inhibitory action test of the compounds of the present invention was performed using a VEGF-induced HUVEC proliferation evaluation system (HUVEC stands for normal human umbilical vein endothelial cells), which is one of the widely-used methods of evaluating in vitro angiogenesis inhibitory effects of drugs. As one of the widely-used methods of evaluating angiogenesis inhibitory effects of drugs, a cell proliferation inhibitory action test using a VEGF-induced HUVEC proliferation reaction evaluation system has been reported in Cancer Res., 59, 99-106 (1999). According to the method described in the above-mentioned document, a cell proliferation inhibitory action test of the compounds of the present invention was performed, the cell proliferation inhibition rate was calculated, and the angiogenesis inhibitory effect of each of the compounds of the present invention was evaluated using the obtained rate as an index. Each test compound was dissolved in dimethyl sulfoxide (hereinafter abbreviated as DMSO), and the obtained solution was diluted with a commercially available phosphoric acid buffer solution (hereinafter abbreviated as PBS), whereby a 20 μg/mL test compound solution was prepared. HUVEC was suspended in a 0.5% fetal bovine serum (hereinafter abbreviated as FBS)-containing F12K medium, whereby a 2×10^4 cells/mL HUVEC suspension was prepared. VEGF was dissolved in 0.1% bovine serum albumin-containing PBS, and the obtained solution was diluted with the 0.5% FBS-containing F12K medium, whereby a 400 ng/mL VEGF solution was prepared. • 1) The HUVEC suspension was inoculated in an amount of 100 μL into each well of a 96-well plate coated with type I collagen (2×10^3 cells per well). • 2) One day after the inoculation, the test compound solution was added in an amount of 5 μL per well. • 3) One hour after the addition of the test compound solution, the VEGF solution was added in an amount of 5 μL per well. • 4) Three days after the addition of the VEGF solution, WST-8 assay kit (Dojin Chemical Co., Ltd.) was added in an amount of 10 μL per well. • 5) After 3 hours, the above-mentioned plate was attached to an absorptiometer (Multilabel Counter ARVO), and an absorbance at 450 nm of each well suspension (hereinafter referred to as test compound suspension) was measured. • 6) A test was carried out in the same manner as in the above 1) to 5) except that 1.0% DMSO was used instead of the test compound solution. The result was used as a control. Incubation was carried out under conditions of 37° C., 5% carbon dioxide and […] in an incubator throughout the above-mentioned test steps. The cell proliferation inhibition rate (%), which was used as an index of an angiogenesis inhibitory effect, was calculated according to the following calculation equation. Cell proliferation inhibition rate (%)=100−{(Absorbance of test compound suspension−A)/(absorbance of control−A)}×100 (Calculation Equation) A: Absorbance of only cell suspension (cell+medium) (Test Results and Discussion)
On the technique in general: Tetrazolium assays rely on reduction of a dye to a coloured formazan, in cell work by metabolically active cells.

In another assay the test system is B16 cells. The assay can be described thus: Tumor growth inhibitory action test using cancer models in mice (B16 cells). To be noted: C57BL/6N mouse, B16 cells intradermal; 100 mg/kg/day oral once a day, day 0 to day 10; average of 9 mice per group; read-out: Tumor tissue weight inhibition rate (%). In kind it is in vivo. As for the experimental part:
A tumor growth inhibitory action test of the compounds of the present invention was performed using a tumor growth model in mice, which is one of the widely-used methods of evaluating in vivo anticancer effects of drugs.
As one of the widely-used methods of evaluating anticancer effects of drugs, a tumor growth inhibitory action test using cancer models in mice has been reported in Cancer Res., 59, 5209-5218 (1999). According to the method described in the above-mentioned document, a tumor growth inhibitory action test of the compounds of the present invention was performed, the tumor tissue weight inhibition rate was calculated, and the anticancer effect of each of the compounds of the present invention was evaluated using the obtained rate as an index.
A 1% aqueous methyl cellulose solution was added to each test compound to suspend it with a sonicator, whereby a 10 mg/mL test compound suspension was prepared.
Physiological saline was added to B16 cells, whereby a 3.3×10^7 cells/mL B16 cell suspension was prepared.
• 1) The back of each mouse (female, 6 weeks of age, C57BL/6N mouse) was depilated using a depilatory under Nembutal anesthesia. • 2) Several days after the depilation, the B16 cell suspension (300 μL) was injected intradermally into the back of the mouse under Nembutal anesthesia. • 3) From the B16 cell injection day (i.e. on day 0) to day 10, the test compound suspension (100 mg/kg/day) was orally administered once a day consecutively. • 4) Ten days after the injection of the cells, the mouse was euthanized with CO2 gas. • 5) A tumor tissue was enucleated from the mouse, and the weight of the tumor tissue was measured with an electronic balance. • 6) A test was performed in the same manner as in 1) to 5) except that the 1% aqueous methyl cellulose solution was used instead of the test compound suspension, and the result was used as a control. (Calculation of Tumor Tissue Weight Inhibition Rate)
A tumor tissue weight inhibition rate (the average of 9 mice per group), which was used as an index of anticancer effect, was calculated according to the following calculation equation. Tumor tissue weight inhibition rate (%)=100−(Mx/Mo)×100 (Calculation Equation) Mo: Tumor tissue weight of control group Mx: Tumor tissue weight of test compound solution administration group (Test Results and Discussion)

For assay [2], the system named is adjuvant arthritis models in rats. The assay can be described thus: Paw edema inhibitory action test using adjuvant arthritis models in rats. Format: in vivo. To be noted: 504 h; Lewis rat, adjuvant-untreated (secondary inflammation) paw, day 21; 10 mg/kg/day oral once a day, day 0 to day 20; average of 8 rats per group; read-out: Paw edema inhibition rate (%). As for the experimental part: A paw edema inhibitory action test of the compounds of the present invention was performed using an adjuvant arthritis model in rats, which is one of the widely-used methods of evaluating in vivo antiarthritis effects of drugs.
As one of the widely-used methods of evaluating antiarthritic effects of drugs, a paw edema inhibitory action test using adjuvant arthritis models in rats is known. Accordingly, a paw edema inhibitory action test of the compounds of the present invention was performed, the paw edema inhibition rate was calculated, and the antiarthritic effect of each of the compounds of the present invention was evaluated using the obtained rate as an index.
A 1% aqueous methyl cellulose solution was added to each test compound to suspend it, whereby a 2 mg/mL test compound suspension was prepared.
Liquid paraffin was added to Mycobacterium butyricum to suspend it, whereby 6 mg/mL adjuvant was prepared.
• 1) The adjuvant (0.1 mL) was injected subcutaneously into a left hind paw sole of each rat (male, 9 weeks of age, Lewis rat) to induce arthritis. • 2) From the adjuvant injection day (i.e. on day 0) to day 20, the test compound suspension (10 mg/kg/day) was orally administered once a day consecutively. • 3) On the adjuvant injection day, day 1, day 4, day 7, day 11, day 14, day 18 and day 21, each paw volume of both hind paws was measured with a plethysmometer. • 4) A test was performed in the same manner as in 1) to 3) except that the 1% aqueous methyl cellulose solution was used instead of the test compound suspension, and the result was used as a control. (Method of Evaluation)
Each paw edema inhibition rate of paw edema in an adjuvant-untreated paw (secondary inflammation paw) in each test compound administration group to paw edema in a secondary inflammation paw in a control group was calculated, and the antiarthritic effect of each of the compounds of the present invention was evaluated using the obtained rate as an index.
The paw edema rate was calculated according to the following calculation equation 1, and then the paw edema inhibition rate (the average of 8 rats per group), which was used as an index of the antiarthritic effect, was calculated according to the calculation equation 2. Paw edema rate (%)=(Paw volume after adjuvant treatment/paw volume before adjuvant treatment)×100 (Calculation Equation 1) Paw edema inhibition rate (%)=100−{(Sx−100)/(So−100)}×100 (Calculation Equation 2) So: Paw edema rate of control group Sx: Paw edema rate of test compound suspension administration group (Test Results and Discussion)

For assay [3], the system named is choroidal neovascularization models in rats. As to the kind of experiment: Neovascularization incidence test using laser-induced choroidal neovascularization models in rats. Format: in vivo. To be noted: 168 h; Brown Norway rat, krypton laser photocoagulation; 30 mg/kg/day oral once a day for 7 days; fluorescein fundus photography on day 7; average of 3 to 4 rats and 6 to 8 eyes; read-out: Ratio of neovascularization incidence rate (% of Control). As for the experimental part:
A neovascularization incidence test of the compounds of the present invention was performed using a choroidal neovascularization model in rats, which is one of the widely-used methods of evaluating in vivo choroidal neovascularization inhibitory effects of drugs.
As one of the widely-used methods of evaluating choroidal neovascularization inhibitory effects of drugs, a neovascularization incidence test using choroidal neovascularization models in rats was reported in Graefe's Arch. Cli. Exp. Ophthalmol., 235, 313-319 (1997). According to the method described in the above-mentioned document, a neovascularization incidence test of the compounds of the present invention was performed, the ratio of neovascularization incidence rate of each of the compounds of the present invention administration groups to a neovascularization incidence rate of vehicle administration group (control group) was calculated, and the choroidal neovascularization inhibitory effect of each of the compounds of the present invention was evaluated using the obtained ratio as an index.
A 1% aqueous methyl cellulose solution was added to each test compound to suspend it, whereby a 6 mg/10 mL test compound suspension was prepared.
• 1) A 7:1 mixed solution (1 mL/kg) of a 5% ketamine hydrochloride injection and a 2% xylazine hydrochloride injection was administered intramuscularly to rats (Brown Norway male rat, 8 weeks of age, weight: 200 to 250 g) to anesthetize them systemically. • 2) A tropicamide-phenylephrine hydrochloride ophthalmic solution (trade name: Mydrin-P) was instilled into eyes to cause mydriasis, and then photocoagulation was performed in a Bruch's membrane of each rat using a krypton laser photocoagulation apparatus.
The laser photocoagulation was performed at 8 spots per eye sparsely avoiding thick retinal vessels in a posterior section of ocular fundus and focusing on the deep layer of the retina. Photocoagulation conditions were adjusted to 100 μm of spot size, 100 mW of intensity and 0.1 sec. dulation. • 3) After the photocoagulation, the ocular fundus was photographed to confirm photocoagulation (laser irradiation) sites. (Method of Test and Method of Measurement) • 1) From the laser photocoagulation day (i.e. on day 0) to day 6, the test compound suspension (30 mg/kg/day) was administered orally once a day for 7 consecutive days. • 2) As the vehicle administration group (control group), a test was performed in the same manner as in 1) except that the 1% aqueous methyl cellulose solution was used instead of the test compound suspension, and the result was used as a control. (Method of Evaluation) • 1) On day 7 after the photocoagulation, 0.1 mL of a 10% aqueous fluorescein solution was injected into a tail vein of the rat, and fluorescein fundus photography was performed. • 2) Next, in the fluorescein fundus photography, a spot where fluorescence leak was not observed was judged as negative, and a spot where fluorescence leak was observed was judged as positive. Photocoagulation sites where a little fluorescence leak was observed were judged as positive when two such sites are present. • 3) The neovascularization incidence rate was calculated according to the calculation equation 1. The ratio of the neovascularization incidence rate of the test compound administration group to that of the vehicle administration group was calculated according to the calculation equation 2 using the neovascularization incidence rate of the respective administration groups. […]

With `CNc1cc(CSc2ncccc2C(=O)Nc2cc(C)cc(C)c2)ccn1` [Compound 3-6, N-(3,5-Dimethylphenyl)-2-(2-methylaminopyridin-4-ylmethylthio)pyridine-3-carboxamide monohydrochloride], the inhibition at 20 µg/mL (stock) in assay [1] is 100%. For the same compound, in the assay on B16 cells, the inhibition in vivo at 100 mg/kg/day amounted to 71%. The inhibition in vivo at 10 mg/kg/day in assay [2] was 33%.
In the case of `CC(=O)N1CCN(c2cc(CSc3ncccc3C(=O)Nc3cc(C)cc(C)c3)ccn2)CC1` [Compound 1-6, 2-[2-(4-Acetylpiperazin-1-yl)pyridin-4-ylmethylthio]-N-(3,5-dimethylphenyl)pyridine-3-carboxamide], the inhibition at 20 µg/mL (stock) in assay [1] amounted to 100%. Also, the inhibition in vivo at 100 mg/kg/day in the assay with B16 cells was 42%. In assay [3], the response vs control in vivo at 30 mg/kg/day was 38%.
For the compound `CC(=O)Nc1cc(CSc2ncccc2C(=O)Nc2cccc(C)c2)ccn1` [Compound 4-20, 2-(2-Acetylaminopyridin-4-ylmethylthio)-N-(3-methylphenyl)pyridine-3-carboxamide], the inhibition in vivo at 100 mg/kg/day with B16 cells came to 84%. In addition, the response vs control in vivo at 30 mg/kg/day in assay [3] is 22%.
As for `CCC(=O)Nc1cc(CSc2ncccc2C(=O)Nc2cc(C)cc(C)c2)ccn1` [Compound 4-2, N-(3,5-Dimethylphenyl)-2-(2-propionylaminopyridin-4-ylmethylthio)pyridine-3-carboxamide], the inhibition at 20 µg/mL (stock) in assay [1] came to 100%. Moreover, the inhibition in vivo at 100 mg/kg/day in the assay with B16 cells came to 51%.

The values above are taken from patent US7544703B2, “Cyclic compound having 4-pyridylalkylthio group having substituted or unsubstituted amino group introduced therein” (Santen Pharmaceutical Co., Ltd., priority 2004, dated 2009).
